The source made the active and inactive calls.
Key:
[1] = viability inhibitors of stage V gametocytes – luminescence, dose response (AID 1117278); assay type: functional, cell-based;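 also: gametocytes exposed to compound for 24 hours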
[2] = viability loss in human Jurkat cells – cell-based, luminescence, cytotoxicity control for P. falciparum gametocyte viability project, dose response (AID 1117277); assay type: functional;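 also: potency reflects loss of cellular ATP meaning fewer viable cells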
[3] = growth inhibition of yeast DHODH-expressing 3D7 parasites – SYBR Green, dry powder samples, dose response (AID 1159570); assay type: functional, cell-based;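 also: parasite growth measured after 72 hours of compound exposure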
[4] = toxicity to human HepG2 hepatoma cells – cell-based, plate reader, dry powder samples, cytotoxicity control, dose response (AID 1159569); assay type: functional;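 also: inhibitor potency with signal falling toward the positive control level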
[5] = P. falciparum Dd2 growth inhibitors, dose response, SYBR Green, cherry-picked samples (AID 1159567); assay type: functional, cell-based
[6] = antimalarial activity against Dd2 parasites – SYBR Green fluorescence, erythrocytes, dry powder, set 2, dose response (AID 1159574); assay type: functional, cell-based
[7] = Dd2 malaria parasite growth inhibition potency – SYBR Green, dry powder samples, dose response (AID 1159566); assay type: functional, cell-based;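 also: potency for growth inhibition with lower SYBR green DNA signal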
[8] = growth inhibition of PfATP4-mutant resistant parasites – NITD609-resistant line, SYBR Green, dry powder, dose response (AID 1159571); assay type: functional, cell-based;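 also: parasites synchronized at ring stage by sorbitol before testing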
[9] = biological target: RNA-editing ligase 1, mitochondrial (Trypanosoma brucei brucei, UniProt P86926); test: inhibition of trypanosome RNA editing ligase – biochemical, fluorescence, Trypanosoma brucei, dose response (AID 1117295); assay type: functional
Chain of RNA-editing ligase 1, mitochondrial (P86926 whole entry): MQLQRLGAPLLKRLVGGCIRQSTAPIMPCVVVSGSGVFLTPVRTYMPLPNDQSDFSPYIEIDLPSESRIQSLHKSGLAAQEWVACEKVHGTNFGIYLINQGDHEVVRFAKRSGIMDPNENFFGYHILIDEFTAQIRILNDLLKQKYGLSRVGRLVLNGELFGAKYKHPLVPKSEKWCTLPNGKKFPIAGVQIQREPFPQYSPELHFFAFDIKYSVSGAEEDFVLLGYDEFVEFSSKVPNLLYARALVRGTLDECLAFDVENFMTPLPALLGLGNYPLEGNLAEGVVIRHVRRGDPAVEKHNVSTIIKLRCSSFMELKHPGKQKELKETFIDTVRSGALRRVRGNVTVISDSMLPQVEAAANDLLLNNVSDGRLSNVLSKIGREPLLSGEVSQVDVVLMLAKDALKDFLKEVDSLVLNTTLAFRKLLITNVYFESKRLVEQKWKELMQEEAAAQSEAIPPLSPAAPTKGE

SUMO-activating enzyme [10] = biological target: T1, SUMO-activating enzyme (Homo sapiens, UniProt Q9UBT2); test: blockers of UBC9-mediated SUMO conjugation – biochemical, AlphaScreen, SUMOylation inhibitor project, confirmation (AID 2018); assay type: functional
T1 sequence (Q9UBE0 whole entry): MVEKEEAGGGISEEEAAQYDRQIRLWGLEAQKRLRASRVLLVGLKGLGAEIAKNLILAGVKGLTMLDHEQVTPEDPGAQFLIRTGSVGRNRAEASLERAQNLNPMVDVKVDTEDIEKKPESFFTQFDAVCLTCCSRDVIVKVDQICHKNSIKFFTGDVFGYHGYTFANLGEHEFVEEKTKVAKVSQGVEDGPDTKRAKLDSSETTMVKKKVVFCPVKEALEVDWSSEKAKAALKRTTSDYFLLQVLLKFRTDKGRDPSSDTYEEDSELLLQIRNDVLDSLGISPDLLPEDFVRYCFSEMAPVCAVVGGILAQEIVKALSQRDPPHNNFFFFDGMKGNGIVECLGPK
T1 sequence (Q9UBT2 whole entry): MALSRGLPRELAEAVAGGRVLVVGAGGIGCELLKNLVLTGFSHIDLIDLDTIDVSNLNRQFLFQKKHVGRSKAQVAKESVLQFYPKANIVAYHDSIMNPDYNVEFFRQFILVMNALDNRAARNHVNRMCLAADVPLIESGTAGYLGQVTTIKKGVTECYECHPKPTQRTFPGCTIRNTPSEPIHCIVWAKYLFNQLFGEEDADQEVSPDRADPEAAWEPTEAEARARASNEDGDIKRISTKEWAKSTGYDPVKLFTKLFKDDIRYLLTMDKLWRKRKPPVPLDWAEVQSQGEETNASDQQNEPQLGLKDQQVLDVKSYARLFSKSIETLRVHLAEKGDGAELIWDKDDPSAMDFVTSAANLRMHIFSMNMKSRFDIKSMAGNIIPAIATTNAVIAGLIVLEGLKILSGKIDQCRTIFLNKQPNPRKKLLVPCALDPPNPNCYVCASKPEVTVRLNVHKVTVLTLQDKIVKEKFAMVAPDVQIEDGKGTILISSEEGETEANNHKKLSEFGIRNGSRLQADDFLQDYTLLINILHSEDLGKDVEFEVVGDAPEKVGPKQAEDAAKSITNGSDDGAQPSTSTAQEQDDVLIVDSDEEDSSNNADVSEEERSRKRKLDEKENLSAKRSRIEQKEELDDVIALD

SUMO-activating enzyme [11] = biological target: T1, SUMO-activating enzyme; test: blockers of SAE1/SAE2–UBC9 SUMO transfer – biochemical, HTRF, uHTS, primary screen (AID 2006); assay type: protein-complex assay
[12] = biological target: T2, Calpain-2 catalytic subunit (Sus scrofa, UniProt P43367); test: m-calpain protease blockers, concentration series – biochemical, fluorogenic peptide substrate, dose response (AID 1420); assay type: functional
T2 sequence (P43367 whole entry): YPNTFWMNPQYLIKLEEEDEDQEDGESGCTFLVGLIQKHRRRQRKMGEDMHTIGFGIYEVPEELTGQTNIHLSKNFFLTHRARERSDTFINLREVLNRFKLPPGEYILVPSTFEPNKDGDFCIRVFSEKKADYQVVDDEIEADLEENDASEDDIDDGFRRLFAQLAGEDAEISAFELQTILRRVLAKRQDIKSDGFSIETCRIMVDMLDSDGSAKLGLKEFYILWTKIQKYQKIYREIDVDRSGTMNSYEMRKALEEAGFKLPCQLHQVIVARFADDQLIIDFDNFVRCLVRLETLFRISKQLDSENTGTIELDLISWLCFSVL

[13] = biological target: Bifunctional protein GlmU (Mycobacterium tuberculosis, UniProt P9WMN3); test: Inhibitors of Mycobacterial Glucosamine-1-phosphate acetyl transferase (GlmU). Secondary screen.; parameters: species or system Mycobacterium tuberculosis H37Rv
Chain of Bifunctional protein GlmU (P9WMN3 whole entry): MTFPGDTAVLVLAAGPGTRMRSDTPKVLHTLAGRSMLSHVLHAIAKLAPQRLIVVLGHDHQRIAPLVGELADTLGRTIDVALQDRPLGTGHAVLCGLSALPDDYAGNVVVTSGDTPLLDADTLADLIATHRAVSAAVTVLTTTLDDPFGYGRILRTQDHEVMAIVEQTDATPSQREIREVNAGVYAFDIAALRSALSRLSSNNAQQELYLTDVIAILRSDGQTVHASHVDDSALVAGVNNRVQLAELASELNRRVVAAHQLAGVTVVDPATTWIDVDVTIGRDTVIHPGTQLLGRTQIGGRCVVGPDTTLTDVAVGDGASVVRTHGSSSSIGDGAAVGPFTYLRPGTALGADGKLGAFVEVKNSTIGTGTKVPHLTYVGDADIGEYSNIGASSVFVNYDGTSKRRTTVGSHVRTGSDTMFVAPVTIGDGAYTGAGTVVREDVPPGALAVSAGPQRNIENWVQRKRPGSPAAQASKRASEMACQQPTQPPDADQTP

[14] = biological target: Induced myeloid leukemia cell differentiation protein Mcl-1 (Homo sapiens, UniProt Q07820); assay type: functional
Chain of Induced myeloid leukemia cell differentiation protein Mcl-1 (Q07820 whole entry): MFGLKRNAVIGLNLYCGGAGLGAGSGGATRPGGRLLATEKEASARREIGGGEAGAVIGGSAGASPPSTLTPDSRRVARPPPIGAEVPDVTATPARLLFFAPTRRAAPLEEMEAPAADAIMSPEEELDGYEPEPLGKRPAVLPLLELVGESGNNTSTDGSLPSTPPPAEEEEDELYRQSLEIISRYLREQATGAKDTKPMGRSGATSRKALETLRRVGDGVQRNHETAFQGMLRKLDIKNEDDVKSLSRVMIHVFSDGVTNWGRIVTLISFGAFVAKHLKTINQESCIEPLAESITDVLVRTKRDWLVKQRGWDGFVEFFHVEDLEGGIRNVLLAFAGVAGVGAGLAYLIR

Caspase-6 = biological target: T3, Caspase-6 (Homo sapiens, UniProt P55212); test: inhibition of CASP6 peptide cleavage – biochemical, VEID-R110 fluorescence, cherry-pick, dose response (AID 720632)
T3 sequence (P55212 whole entry): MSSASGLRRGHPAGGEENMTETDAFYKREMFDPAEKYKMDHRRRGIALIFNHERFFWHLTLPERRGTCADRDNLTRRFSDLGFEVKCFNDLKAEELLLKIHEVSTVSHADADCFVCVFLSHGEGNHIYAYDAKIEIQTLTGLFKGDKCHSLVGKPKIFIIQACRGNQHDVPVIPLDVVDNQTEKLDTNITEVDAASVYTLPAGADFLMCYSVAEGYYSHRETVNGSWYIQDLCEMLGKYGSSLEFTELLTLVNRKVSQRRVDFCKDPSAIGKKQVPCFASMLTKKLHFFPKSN

Transthyretin = Transthyretin (Homo sapiens, UniProt P02766); test: Luminescence-based cell-based high throughput dose response assay to identify activators of Transthyretin (TTR) transcription.; assay type: functional
[15] = biological target: Diphosphomevalonate decarboxylase (Streptococcus pneumoniae serotype 2 (strain D39 / NCTC 7466), UniProt Q9FD53); test: diphosphomevalonate decarboxylase inhibitor confirmation – biochemical, cuvette format, coupled NADH fluorescence (AID 1028); assay type: functional
Chain of Diphosphomevalonate decarboxylase (Q9FD53 whole entry): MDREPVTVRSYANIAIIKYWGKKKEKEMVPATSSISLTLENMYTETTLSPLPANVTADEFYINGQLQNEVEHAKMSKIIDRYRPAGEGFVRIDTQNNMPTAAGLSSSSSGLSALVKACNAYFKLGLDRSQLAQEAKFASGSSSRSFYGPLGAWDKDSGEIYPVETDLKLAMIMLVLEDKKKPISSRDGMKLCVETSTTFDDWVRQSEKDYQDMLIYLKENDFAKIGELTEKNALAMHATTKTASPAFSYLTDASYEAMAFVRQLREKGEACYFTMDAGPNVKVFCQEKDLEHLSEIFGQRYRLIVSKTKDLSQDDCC

Which IC50 [1] does the source give for `Nc1ccc(-c2cnc(-c3ccc(N)cc3)nc2)cc1` here?
Its IC50 is > 109 µM (inactive).

What about the IC50 [2] of the same compound?
Its IC50 is > 83.3 µM (inactive).

With `COc1cccc(C#Cc2ccc([C@H]3[C@@H](CO)N4C(=O)CN(C(=O)Cc5ccccc5)C[C@H]34)cc2)c1` as the compound, how does the AC50 [3] read?
The AC50 was 0.114 µM (active).

And the AC50 [4]?
The AC50 was 21.1 µM (active).

What about the AC50 [5] of the same compound?
The AC50 was < 0.3 µM (active).

And the AC50 [6]?
Its AC50 is 0.0195 µM (active).

And the AC50 [7]?
The AC50 was 0.0301 µM (active).

And the AC50 [8]?
The AC50 was 0.0363 µM (active).

Which IC50 [9] does the source give for `COC(=O)C1=C(C)N(Cc2cccc(C(F)(F)F)c2)C(NCc2cc(OC)c(OC)c(OC)c2)=NC1c1ccccc1C(F)(F)F` (configuration not stated) here?
Its IC50 is > 96.6 µM (inactive).

With `O=C(O)c1cccc(Cn2c(Cl)c(/C=N/NC(=O)c3cc4ccccc4cc3O)sc2=O)c1` as the compound, how does the IC50 (SUMO-activating enzyme [10]) read?
The IC50 was 1.86 µM (active).

And the IC50 (SUMO-activating enzyme [11])?
The IC50 was 24.1 µM (active).

What about the IC50 [12] of the same compound?
Its IC50 is > 50 µM (not active).

What about the IC50 [13] of the same compound?
Its IC50 is 134 µM (active).

And the IC50 [14]?
Its IC50 is 3.74 µM (active).

And the AC50 (Caspase-6)?
The AC50 was 18.1 µM (active).

For `Cc1ccc(/C=N/NC(=O)c2csc(C)c2)o1`, which EC50 (Transthyretin) is on record?
Its EC50 is > 167 µM (inactive).

For `Cc1ccc(-n2sc3ccccc3c2=O)cc1C(=O)N1CCCCC1`, which IC50 [15] is on record?
The IC50 was 19.7 µM (active).
